Columns and labels:
[1] = molecular target: T1, Lysine-specific demethylase 4B (Homo sapiens, UniProt O94953); assay: Inhibition of human KDM4B (1 to 347 residues) catalytic domain measured formaldehyde dehydrogenase (FDH)-coupled fluorescence assay
T1 sequence (O94953 whole entry): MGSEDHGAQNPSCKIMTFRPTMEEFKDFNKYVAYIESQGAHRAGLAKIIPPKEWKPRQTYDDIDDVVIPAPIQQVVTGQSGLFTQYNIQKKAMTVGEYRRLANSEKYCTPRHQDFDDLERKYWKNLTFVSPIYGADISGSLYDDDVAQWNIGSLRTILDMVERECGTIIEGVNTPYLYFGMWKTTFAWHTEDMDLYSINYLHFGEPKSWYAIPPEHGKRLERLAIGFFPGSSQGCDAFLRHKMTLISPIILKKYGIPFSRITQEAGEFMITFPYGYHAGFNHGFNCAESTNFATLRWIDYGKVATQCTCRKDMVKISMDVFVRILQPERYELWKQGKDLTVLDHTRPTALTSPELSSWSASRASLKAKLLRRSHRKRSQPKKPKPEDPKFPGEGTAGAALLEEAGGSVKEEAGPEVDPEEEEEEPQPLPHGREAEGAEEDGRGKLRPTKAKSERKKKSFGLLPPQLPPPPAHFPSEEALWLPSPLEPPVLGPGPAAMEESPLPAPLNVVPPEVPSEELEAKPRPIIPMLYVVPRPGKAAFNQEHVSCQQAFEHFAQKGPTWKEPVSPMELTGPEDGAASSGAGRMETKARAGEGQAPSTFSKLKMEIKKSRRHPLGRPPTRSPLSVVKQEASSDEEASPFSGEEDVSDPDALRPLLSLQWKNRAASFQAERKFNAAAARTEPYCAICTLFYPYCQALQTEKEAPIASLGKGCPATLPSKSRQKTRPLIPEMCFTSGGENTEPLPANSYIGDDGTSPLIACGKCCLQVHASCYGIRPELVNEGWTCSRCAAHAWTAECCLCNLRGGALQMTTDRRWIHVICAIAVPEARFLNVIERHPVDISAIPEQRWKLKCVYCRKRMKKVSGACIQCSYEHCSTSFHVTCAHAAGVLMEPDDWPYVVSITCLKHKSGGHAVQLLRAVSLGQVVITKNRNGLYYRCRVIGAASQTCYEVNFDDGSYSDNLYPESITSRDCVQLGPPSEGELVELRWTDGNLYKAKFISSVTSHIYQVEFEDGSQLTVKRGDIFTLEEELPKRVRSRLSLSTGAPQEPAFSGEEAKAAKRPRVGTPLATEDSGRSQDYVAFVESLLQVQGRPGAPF

[2] = molecular target: T2, Lysine-specific demethylase 4C (Homo sapiens, UniProt Q9H3R0); assay: Inhibition of human KDM4C (1 to 347 residues) catalytic domain measured formaldehyde dehydrogenase (FDH)-coupled fluorescence assay
T2 sequence (Q9H3R0 whole entry): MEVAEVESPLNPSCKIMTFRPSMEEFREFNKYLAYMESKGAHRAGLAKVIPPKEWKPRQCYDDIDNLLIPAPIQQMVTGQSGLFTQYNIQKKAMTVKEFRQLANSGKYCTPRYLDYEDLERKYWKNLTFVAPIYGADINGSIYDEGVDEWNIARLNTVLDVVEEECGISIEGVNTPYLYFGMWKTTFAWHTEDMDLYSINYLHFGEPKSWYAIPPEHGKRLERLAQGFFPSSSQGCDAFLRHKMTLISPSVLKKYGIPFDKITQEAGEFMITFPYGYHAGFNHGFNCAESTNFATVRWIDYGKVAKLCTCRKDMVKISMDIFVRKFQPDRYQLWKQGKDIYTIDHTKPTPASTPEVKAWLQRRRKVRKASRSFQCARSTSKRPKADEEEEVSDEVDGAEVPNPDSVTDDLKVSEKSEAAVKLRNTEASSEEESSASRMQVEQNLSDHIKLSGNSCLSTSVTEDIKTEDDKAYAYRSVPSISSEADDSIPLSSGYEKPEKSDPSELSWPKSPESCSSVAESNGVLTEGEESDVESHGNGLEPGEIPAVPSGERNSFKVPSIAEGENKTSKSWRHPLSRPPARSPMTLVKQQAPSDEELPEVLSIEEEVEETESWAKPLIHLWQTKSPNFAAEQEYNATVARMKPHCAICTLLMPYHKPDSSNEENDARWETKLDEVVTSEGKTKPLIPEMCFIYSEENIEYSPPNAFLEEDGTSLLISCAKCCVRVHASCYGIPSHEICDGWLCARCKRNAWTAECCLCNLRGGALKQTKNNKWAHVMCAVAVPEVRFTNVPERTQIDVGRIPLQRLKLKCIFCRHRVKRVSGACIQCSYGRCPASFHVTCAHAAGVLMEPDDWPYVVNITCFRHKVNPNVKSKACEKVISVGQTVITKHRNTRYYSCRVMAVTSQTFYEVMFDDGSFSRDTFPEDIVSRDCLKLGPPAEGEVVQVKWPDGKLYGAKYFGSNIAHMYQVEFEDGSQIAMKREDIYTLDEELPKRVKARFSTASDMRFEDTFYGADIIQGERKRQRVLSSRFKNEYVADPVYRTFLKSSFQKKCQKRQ

- IC50 [1]: 4 µM
- IC50 [2]: 4 µM
SMILES: COC(=O)Cc1cc(O)n(-c2nc3ccccc3[nH]2)n1

From ChEMBL document CHEMBL5137065, “Recent Advances with KDM4 Inhibitors and Potential Applications” (J Med Chem, 2022)
